Data: paper PMC6968641, “N-monoarylacetothioureas as potent urease inhibitors: synthesis, SAR, and biological evaluation” (Journal of Enzyme Inhibition and Medicinal Chemistry, 2019)
≈ marks a conversion by molar mass, not a printed value. Like-named read-outs stand apart in the source and are kept apart here.

How the values were obtained:
H. pylori urease = target: T1, H. pylori urease (Helicobacter pylori, UniProt P69996); experiment: Urease inhibition, extracted H. pylori urease (indophenol method); assay type: biochemical; conditions: for IC50: IC50 Extracted urease, extracted H. pylori urease
T1 construct: endogenous in cells; host or cells: H. pylori ATCC 43504; sonicated, supernatant desalted on Sephadex G-25 (crude extract)
Procedure: For urease inhibition assays, 50 mL broth cultures (2.0 × 10^8 CFU/mL) were centrifuged (5000×g, 4 °C) to collect the bacteria, and after washing twice with phosphate-buffered saline (pH 7.4), the H. pylori precipitation was stored at –80 °C for 8 h, and then was returned to room temperature, and after addition of 3 mL of distilled water and protease inhibitors, sonication was performed for 60 s. Following centrifugation (15,000×g, 4 °C), the supernatant was desalted through Sephadex G-25 column (PD-10 columns, Amersham Pharmacia Biotech, Uppsala, Sweden). The resultant crude urease solution was added to an equal volume of glycerol and stored at 4 °C until use in the experiment.
Urease activity was determined in the 96-well assay plate by measuring ammonia production using the indophenol method as described by Weatherburn[20]. Briefly, to each well, 50 µL of urea (10 mM) in phosphate buffer solution was added in a mixture of 25 µL (10 U) of H. pylori urease and 25 µL of the test compound, which was incubated at 37 °C for 0.5 h. Fifty µL of phenol reagent (containing 127 mM phenol and 0.168 mM sodium nitroprusside) and 50 µL of alkali reagent (containing 125 mM NaOH and 0.168 mM NaOCl) were added in turn. The resulted mixture was incubated at 37 °C for another 0.5 h for colouration developing. The increasing absorbance was measured at 630 nm after 50 min using a microplate reader (Molecular Devices, San Jose, CA). Percentage inhibitions were calculated from the following formula (Equation (1)). Experiments were performed in triplicate and AHA was used as reference drug, and the IC50 value was determined as the concentration of compound that give 50% inhibition of maximal activity. As for the urease assay of intact cells, 25 µL (10 U) of H. pylori urease was replaced by 25 µL of cell suspension (4.0 × 10^7 CFU/mL).

H. pylori = experiment: Minimum inhibitory concentration, broth microdilution (CLSI); assay type: cell-based, Helicobacter pylori (ATCC 43504); conditions: Helicobacter pylori
Procedure: H. pylori (ATCC 43504; […] The minimum inhibitory concentration (MIC) values were determined using the broth microdilution protocol according to the methods of the Clinical and Laboratory Standards Institute (CLSI)[21].

[1] = target: T2, urease in intact H. pylori cell (Helicobacter pylori, UniProt P69996); experiment: Urease inhibition in intact H. pylori cell (indophenol method); assay type: cell-based
T2 construct: H. pylori urease was replaced by 25 µL of cell suspension (4.0 × 10^7 CFU/mL); endogenous in cells; host or cells: intact H. pylori ATCC 43504 cells

Jack bean urease [2] = target: T3, Jack bean urease (Canavalia ensiformis, UniProt P07374); experiment: Ligand affinity by surface plasmon resonance (SPR); assay type: binding; conditions: for kon: pH 7.4; for koff: immobilised urease, PBS pH 7.4
T3 construct: purchased
Procedure: The binding kinetics of selected compounds were assayed via surface plasmon resonance (SPR) using an OPEN SPR instrument (Nicoya Lifesciences, Kitchener, Canada). First, urease dissolved (50 µg/mL) in PBS buffer (1 mM KH2PO4, 155 mM NaCl, 3 mM Na2HPO4-12H2O, pH 7.4), was immobilised to a CM5 chip using a standard amine coupling procedure. Then, SPR measurements were carried out in PBS, and stock solutions were diluted in the same buffer. Data were collected with OpenSPR control software. Experiments were performed by monitoring the refractive index changes as a function of time under constant flow rate of 20 µL/min. The relative amount of inhibitor bound to the urease was determined by measuring the net increase in refractive index over time compared to control running buffer. There is an inline subtraction of reference surface during the run. This change is usually reported in response units (RU). Sensograms were processed and analysed using TraceDrawer software. The binding curves were fit to determine the equilibrium dissociation constant (KD).
In the present paper, the pure Jack bean urease from commercial was used for this assay because of non-availability of pure H. pylori urease. […] For efficient and tight ligand binding, the rate constant koff is of particular interest, because koff has a potential to differentiate indistinguishable compounds with similar affinities.

[3] = Cytotoxicity MTT assay, L-02; assay type: cell-based; conditions: human, L-02 cells (normal hepatic cell line), 25 μg/mL
Procedure: (§1) The stock solutions of the selected compounds (250 µg/mL, in PBS) were prepared in medium. L-02 cells and P69 cells were grown in medium (90% RPMI-1640 medium, 10% foetal bovine serum, 1% penicillin/streptomycin) and maintained at 37 °C in a humidified atmosphere containing 5% CO2, respectively. Cells were seeded in 96-well cell culture plates. On the day when seeding, the cells were exposed to 250 µg/mL of compounds and further cultured for 72 h at 37 °C. Cell proliferation was then determined using the thiazolyl blue tetrazolium bromide (MTT) assay.

[4] = Cytotoxicity MTT assay, P69; assay type: cell-based; conditions: human, P69 cells (normal prostate cell line), 25 μg/mL
Procedure: as §1

Jack bean urease [5] = target: T3, Jack bean urease; experiment: Enzyme kinetic study (indophenol method); assay type: biochemical; conditions: for Type of inhibition: Jack bean urease; for Ki': dissociation constant of urease-urea-inhibitor complex
Procedure: Based on the indophenol method, the velocity of ammonia production (V) was measured in the presence of concentration gradients of urea ([S]) for every specific concentration of selected compounds ([I]). Nonlinear fitting curves to data of V and [S] were used to determine the type of enzyme inhibition based on the general kinetics equation (Equation (1)). Subsequently, the resulted fitting constants ( Km/Vmax(1+[I]/Ki) or 1/Vmax(1+[I]/Ki′) ) and [I] were linearly fitted to give kinetic parameters Ki and Ki', respectively. The experimental assay was performed against a pure urease (Jack bean urease) for the consideration of precision. (1) V=Vmax[S]/Km(1+[I]/Ki)+(1+[I]/K^′i)[S]
Mazzei et al. confirmed that urease shared the mechanism of catalysis and inhibition regardless of the biological sources[27]^,[28]. For excluding the possible interference, a pure urease (Jack bean urease) was therefore used for kinetic assays. As an example, Figure 2 describes the preincubation-time dependence of urease inhibition by b19. The suppressed urease activity maintained at relatively constant values with the increasing preincubation time under different concentrations of b19, resulting in nearly equal IC50 values.
Similarly, kinetic parameters ( Ki and Ki' ) and inhibition types of other compounds were also determined and are shown in Table 3.

T1 sequence (P14916 whole entry): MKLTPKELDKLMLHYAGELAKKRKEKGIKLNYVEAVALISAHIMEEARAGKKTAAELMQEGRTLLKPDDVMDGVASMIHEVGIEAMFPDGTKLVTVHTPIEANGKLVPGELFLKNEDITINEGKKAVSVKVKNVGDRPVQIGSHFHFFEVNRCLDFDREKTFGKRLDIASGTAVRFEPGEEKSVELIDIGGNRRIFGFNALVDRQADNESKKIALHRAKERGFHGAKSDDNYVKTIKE
T1 sequence (P69996 whole entry): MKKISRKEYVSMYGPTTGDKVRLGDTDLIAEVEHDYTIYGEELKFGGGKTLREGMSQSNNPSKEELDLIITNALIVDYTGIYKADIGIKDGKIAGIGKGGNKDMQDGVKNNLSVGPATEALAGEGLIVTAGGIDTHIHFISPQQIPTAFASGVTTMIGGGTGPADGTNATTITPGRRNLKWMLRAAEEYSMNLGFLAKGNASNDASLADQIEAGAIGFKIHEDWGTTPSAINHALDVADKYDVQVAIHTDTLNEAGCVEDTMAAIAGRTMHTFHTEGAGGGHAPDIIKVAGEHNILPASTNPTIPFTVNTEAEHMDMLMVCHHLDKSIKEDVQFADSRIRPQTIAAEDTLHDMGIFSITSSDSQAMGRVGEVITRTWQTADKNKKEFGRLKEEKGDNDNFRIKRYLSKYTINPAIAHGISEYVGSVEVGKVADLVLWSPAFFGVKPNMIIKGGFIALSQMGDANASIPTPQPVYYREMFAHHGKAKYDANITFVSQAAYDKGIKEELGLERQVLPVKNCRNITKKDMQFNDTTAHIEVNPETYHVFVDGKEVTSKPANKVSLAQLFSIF
T3 sequence (P07374 whole entry, looked up): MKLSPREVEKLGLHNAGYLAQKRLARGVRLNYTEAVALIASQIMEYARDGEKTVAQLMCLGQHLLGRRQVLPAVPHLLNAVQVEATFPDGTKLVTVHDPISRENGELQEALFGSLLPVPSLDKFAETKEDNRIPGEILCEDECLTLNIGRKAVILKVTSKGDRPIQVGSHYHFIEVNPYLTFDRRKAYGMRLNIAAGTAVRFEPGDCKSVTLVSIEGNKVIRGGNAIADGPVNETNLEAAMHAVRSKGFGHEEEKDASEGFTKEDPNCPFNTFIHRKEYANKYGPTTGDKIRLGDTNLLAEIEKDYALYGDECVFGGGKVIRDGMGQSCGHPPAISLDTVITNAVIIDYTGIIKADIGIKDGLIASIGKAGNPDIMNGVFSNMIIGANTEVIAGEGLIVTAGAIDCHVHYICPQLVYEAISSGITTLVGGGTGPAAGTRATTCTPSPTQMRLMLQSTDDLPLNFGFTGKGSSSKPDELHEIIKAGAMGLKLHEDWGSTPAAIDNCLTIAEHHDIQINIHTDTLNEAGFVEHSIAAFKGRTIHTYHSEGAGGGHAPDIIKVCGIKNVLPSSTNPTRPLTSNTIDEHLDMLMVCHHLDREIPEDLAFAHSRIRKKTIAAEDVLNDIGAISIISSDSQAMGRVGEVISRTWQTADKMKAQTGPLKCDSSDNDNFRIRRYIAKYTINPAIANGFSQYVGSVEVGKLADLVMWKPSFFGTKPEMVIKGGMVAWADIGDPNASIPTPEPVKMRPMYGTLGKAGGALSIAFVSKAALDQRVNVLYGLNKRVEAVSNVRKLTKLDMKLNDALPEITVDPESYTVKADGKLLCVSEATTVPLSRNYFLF
T2 sequence (P69996 whole entry): as the sequence (P69996 whole entry) above
T2 sequence (P14916 whole entry, further chain): as the sequence (P14916 whole entry) above

SMILES: NC(=S)NC(=O)Cc1ccccc1Br [b15]
- melting point: 179 to 179.5 °C
- IC50 (H. pylori urease): 51.1 ± 4.4 µM

SMILES: Cc1ccc(CC(=O)NC(N)=S)cc1 [b16]
- melting point: 171.2 to 172.5 °C
- MIC (H. pylori; pH=4.0, read-out: MIC pH=4.0): 2 µM (≈ 0.417 µg/mL)
- MIC (H. pylori; pH=7.0, read-out: MIC pH=7.0): 64 µM (≈ 13.3 µg/mL)
- IC50 [1]: 35.7 ± 1.7 µM
- Kd (Jack bean urease [2]): 0.162 ± 0.0038 µM
- kon (Jack bean urease [2]): 501000 M⁻¹ s⁻¹
- koff (Jack bean urease [2]; pH 7.4, SPR): 0.081 s⁻¹
- IC50 (H. pylori urease): 5.2 ± 0.32 µM
- viability at 72 h, 25 µg/mL [3]: 114%
- viability at 72 h, 25 µg/mL [4]: 89.9%
- Ki (Jack bean urease [5]): 1.28 µM
- Type of inhibition (Jack bean urease [5]): Reversible
- Ki' (Jack bean urease [5]): 2.84 µM

SMILES: COc1ccccc1CC(=O)NC(N)=S [b17]
- melting point: 135.4 to 136.9 °C
- IC50 (H. pylori urease): 55.7 ± 3.1 µM

SMILES: Cc1ccccc1CC(=O)NC(N)=S [b18]
- melting point: 135.6 to 137.1 °C
- IC50 (H. pylori urease): 46.2 ± 1.8 µM

SMILES: NC(=S)NC(=O)Cc1ccc(Cl)cc1 [b19]
- melting point: 184.1 to 186.6 °C
- MIC (H. pylori; pH=4.0, read-out: MIC pH=4.0): 0.5 µM (≈ 0.114 µg/mL)
- MIC (H. pylori; pH=7.0, read-out: MIC pH=7.0): 32 µM (≈ 7.32 µg/mL)
- IC50 [1]: 3.86 ± 0.1 µM
- fold more potent than AHA, urease in intact cell ([1]; ratio of IC50 values vs AHA): 44 fold
- Kd (Jack bean urease [2]): 0.0045 ± 0.00016 µM
- koff (Jack bean urease [2]; SPR): 1.73 × 10^–3 ± 2.57 × 10^–5 s^–1
- kon (Jack bean urease [2]): 3.82e+06 M⁻¹ s⁻¹
- koff (Jack bean urease [2]; pH 7.4, SPR): 0.0016 s⁻¹
- IC50 (H. pylori urease): 0.16 ± 0.05 µM
- fold more potent than AHA, extracted urease (H. pylori urease; ratio of IC50 values vs AHA): 170 fold
- viability at 72 h, 25 µg/mL [3]: > 93%
- viability at 72 h, 25 µg/mL [4]: > 93%
- Ki (Jack bean urease [5]): 0.04 µM
- Type of inhibition (Jack bean urease [5]): Reversible
- preincubation-time dependence of urease inhibition (Jack bean urease [5]; different preincubation times and concentrations): time-independent
- Ki' (Jack bean urease [5]): 0.16 µM
- inhibition mechanism (Jack bean urease [5]; from Ki and Ki'): mixed competitive

SMILES: NC(=S)NC(=O)Cc1ccccc1[N+](=O)[O-] [b20]
- melting point: 177.6 to 178.4 °C
- IC50 (H. pylori urease): 183 ± 12 µM

SMILES: NC(=S)NC(=O)Cc1ccc(Cl)cc1Cl [b21]
- melting point: 166.6 to 167.2 °C
- IC50 (H. pylori urease): 67.7 ± 4.3 µM

SMILES: NC(=S)NC(=O)Cc1ccc([N+](=O)[O-])cc1 [b22]
- melting point: 199.1 to 200.9 °C
- IC50 (H. pylori urease): 155 ± 16 µM

SMILES: NC(=S)NC(=O)Cc1ccc2ccccc2c1 [b24]
- melting point: 202.6 to 204.4 °C

SMILES: NC(=S)NC(=O)C(c1ccccc1)c1ccccc1 [b25]
- melting point: 169.5 to 172.7 °C
- IC50 (H. pylori urease): 318 ± 24 µM

SMILES: NC(=S)NC(=O)Cc1ccc(-c2ccccc2)cc1 [b26]
- melting point: 187.3 to 189.6 °C
- IC50 (H. pylori urease): 279 ± 16 µM

SMILES: NC(=S)NC(=O)Cc1cccc2ccccc12 [b27]
- melting point: 195.5 to 197.9 °C

SMILES: NC(=S)NC(=O)Cc1ccc2c(c1)OCO2 [b28]
- melting point: 153.5 to 155 °C
- IC50 (H. pylori urease): 98 ± 5 µM

SMILES: NC(=S)NC(=O)Cc1ccc(O)c(O)c1 [b29]
- melting point: 153.5 to 155 °C
- IC50 [1]: 143 ± 6 µM
- Kd (Jack bean urease [2]): 0.783 ± 0.0213 µM
- kon (Jack bean urease [2]): 19800 M⁻¹ s⁻¹
- koff (Jack bean urease [2]; pH 7.4, SPR): 0.0155 s⁻¹
- IC50 (H. pylori urease): 18.4 ± 1.6 µM
- Ki (Jack bean urease [5]): 8.21 µM
- Type of inhibition (Jack bean urease [5]): Reversible
- Ki' (Jack bean urease [5]): 21.5 µM
